Among the data in US20180022786A1, “NOVEL SODIUM CHANNEL BLOCKING PEPTIDES AND THE USE THEREOF” (priority 2012, published 2018) are IC50 values, retold here.

Read-outs that look alike come from different tables or passages of the source.

The target in assay [1] is T1, Nav1.7 (Homo sapiens, UniProt Q15858). As to the kind of experiment: cell-based.
In assay [2] the target is T2, Nav1.2 (Rattus norvegicus, UniProt P04775). As to the kind of experiment: cell-based. Conditions: EP (electrophysiology).
T2 sequence (P04775 whole entry): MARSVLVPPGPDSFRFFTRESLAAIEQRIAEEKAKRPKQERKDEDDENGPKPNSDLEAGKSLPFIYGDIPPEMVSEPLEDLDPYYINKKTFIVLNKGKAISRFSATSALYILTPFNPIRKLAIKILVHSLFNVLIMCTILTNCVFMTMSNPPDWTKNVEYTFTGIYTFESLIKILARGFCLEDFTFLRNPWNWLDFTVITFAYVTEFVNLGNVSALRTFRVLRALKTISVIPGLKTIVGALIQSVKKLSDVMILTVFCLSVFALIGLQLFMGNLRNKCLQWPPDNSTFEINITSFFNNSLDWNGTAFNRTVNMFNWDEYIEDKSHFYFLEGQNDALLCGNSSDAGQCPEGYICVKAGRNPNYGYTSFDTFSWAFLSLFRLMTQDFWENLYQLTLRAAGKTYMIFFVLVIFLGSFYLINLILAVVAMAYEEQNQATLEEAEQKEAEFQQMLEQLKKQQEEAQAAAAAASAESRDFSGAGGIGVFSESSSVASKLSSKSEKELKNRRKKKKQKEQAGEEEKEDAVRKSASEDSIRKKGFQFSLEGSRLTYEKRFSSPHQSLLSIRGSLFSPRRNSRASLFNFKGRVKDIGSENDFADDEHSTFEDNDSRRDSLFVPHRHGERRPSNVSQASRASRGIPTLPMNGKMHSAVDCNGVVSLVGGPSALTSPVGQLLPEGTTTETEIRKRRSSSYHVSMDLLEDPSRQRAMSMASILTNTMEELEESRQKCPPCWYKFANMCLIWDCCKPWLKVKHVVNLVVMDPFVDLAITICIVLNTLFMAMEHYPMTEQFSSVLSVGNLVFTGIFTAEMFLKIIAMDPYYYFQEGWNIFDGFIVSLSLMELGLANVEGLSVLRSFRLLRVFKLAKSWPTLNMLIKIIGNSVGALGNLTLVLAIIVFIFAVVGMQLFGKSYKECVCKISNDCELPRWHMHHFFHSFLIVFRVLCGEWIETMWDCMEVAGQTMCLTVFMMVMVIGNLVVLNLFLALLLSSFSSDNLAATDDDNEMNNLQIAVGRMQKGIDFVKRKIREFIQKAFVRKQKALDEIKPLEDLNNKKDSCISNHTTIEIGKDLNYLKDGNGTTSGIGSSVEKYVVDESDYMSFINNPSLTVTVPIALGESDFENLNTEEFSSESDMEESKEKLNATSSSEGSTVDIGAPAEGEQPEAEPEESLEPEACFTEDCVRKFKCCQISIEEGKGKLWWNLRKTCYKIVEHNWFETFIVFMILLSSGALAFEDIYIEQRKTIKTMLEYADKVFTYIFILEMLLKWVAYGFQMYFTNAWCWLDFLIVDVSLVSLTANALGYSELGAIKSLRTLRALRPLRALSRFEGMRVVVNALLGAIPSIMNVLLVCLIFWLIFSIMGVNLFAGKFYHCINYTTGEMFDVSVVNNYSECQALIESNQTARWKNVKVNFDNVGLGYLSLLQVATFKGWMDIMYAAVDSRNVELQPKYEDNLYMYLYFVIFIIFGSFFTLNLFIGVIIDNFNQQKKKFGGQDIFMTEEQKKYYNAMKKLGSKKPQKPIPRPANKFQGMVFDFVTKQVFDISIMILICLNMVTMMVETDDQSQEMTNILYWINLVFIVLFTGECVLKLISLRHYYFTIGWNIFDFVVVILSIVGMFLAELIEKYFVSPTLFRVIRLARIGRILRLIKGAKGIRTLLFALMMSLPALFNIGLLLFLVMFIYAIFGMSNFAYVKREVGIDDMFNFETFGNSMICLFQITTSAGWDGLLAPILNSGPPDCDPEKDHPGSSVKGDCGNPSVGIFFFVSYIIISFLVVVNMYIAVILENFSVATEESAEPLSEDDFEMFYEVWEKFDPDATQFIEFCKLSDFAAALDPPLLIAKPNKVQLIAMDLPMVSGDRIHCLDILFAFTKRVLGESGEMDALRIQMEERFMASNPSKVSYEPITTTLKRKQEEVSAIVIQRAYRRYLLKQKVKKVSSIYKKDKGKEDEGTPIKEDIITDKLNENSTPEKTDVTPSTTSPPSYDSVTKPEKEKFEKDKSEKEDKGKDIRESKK
A further assay has as its target Nav1.1 (Homo sapiens, UniProt P35498). The following applies: read-out: TTX IC50; cited from earlier work.
A further assay addresses Nav1.6 (Homo sapiens, UniProt Q9UQD0). Conditions: read-out: TTX IC50; cited from earlier work.
Another assay has as its target Nav1.9 (Homo sapiens, UniProt Q9UI33). Conditions: read-out: TTX IC50; cited from earlier work.
Another assay has as its target Nav1.3 (Homo sapiens, UniProt Q9NY46). The following applies: read-out: TTX IC50; cited from earlier work.
The target in assay [3] is Nav1.2 (Homo sapiens, UniProt Q99250). The following applies: read-out: TTX IC50; cited from earlier work.
A further assay addresses Nav1.8 (Homo sapiens, UniProt Q9Y5Y9). Conditions: read-out: TTX IC50; cited from earlier work.
The target of assay [4] is T1, Nav1.7. The following applies: Table 2, natural toxins, from WO 2012/004664 A2; cited from earlier work.
Target sequence in this assay (Q15858 whole entry): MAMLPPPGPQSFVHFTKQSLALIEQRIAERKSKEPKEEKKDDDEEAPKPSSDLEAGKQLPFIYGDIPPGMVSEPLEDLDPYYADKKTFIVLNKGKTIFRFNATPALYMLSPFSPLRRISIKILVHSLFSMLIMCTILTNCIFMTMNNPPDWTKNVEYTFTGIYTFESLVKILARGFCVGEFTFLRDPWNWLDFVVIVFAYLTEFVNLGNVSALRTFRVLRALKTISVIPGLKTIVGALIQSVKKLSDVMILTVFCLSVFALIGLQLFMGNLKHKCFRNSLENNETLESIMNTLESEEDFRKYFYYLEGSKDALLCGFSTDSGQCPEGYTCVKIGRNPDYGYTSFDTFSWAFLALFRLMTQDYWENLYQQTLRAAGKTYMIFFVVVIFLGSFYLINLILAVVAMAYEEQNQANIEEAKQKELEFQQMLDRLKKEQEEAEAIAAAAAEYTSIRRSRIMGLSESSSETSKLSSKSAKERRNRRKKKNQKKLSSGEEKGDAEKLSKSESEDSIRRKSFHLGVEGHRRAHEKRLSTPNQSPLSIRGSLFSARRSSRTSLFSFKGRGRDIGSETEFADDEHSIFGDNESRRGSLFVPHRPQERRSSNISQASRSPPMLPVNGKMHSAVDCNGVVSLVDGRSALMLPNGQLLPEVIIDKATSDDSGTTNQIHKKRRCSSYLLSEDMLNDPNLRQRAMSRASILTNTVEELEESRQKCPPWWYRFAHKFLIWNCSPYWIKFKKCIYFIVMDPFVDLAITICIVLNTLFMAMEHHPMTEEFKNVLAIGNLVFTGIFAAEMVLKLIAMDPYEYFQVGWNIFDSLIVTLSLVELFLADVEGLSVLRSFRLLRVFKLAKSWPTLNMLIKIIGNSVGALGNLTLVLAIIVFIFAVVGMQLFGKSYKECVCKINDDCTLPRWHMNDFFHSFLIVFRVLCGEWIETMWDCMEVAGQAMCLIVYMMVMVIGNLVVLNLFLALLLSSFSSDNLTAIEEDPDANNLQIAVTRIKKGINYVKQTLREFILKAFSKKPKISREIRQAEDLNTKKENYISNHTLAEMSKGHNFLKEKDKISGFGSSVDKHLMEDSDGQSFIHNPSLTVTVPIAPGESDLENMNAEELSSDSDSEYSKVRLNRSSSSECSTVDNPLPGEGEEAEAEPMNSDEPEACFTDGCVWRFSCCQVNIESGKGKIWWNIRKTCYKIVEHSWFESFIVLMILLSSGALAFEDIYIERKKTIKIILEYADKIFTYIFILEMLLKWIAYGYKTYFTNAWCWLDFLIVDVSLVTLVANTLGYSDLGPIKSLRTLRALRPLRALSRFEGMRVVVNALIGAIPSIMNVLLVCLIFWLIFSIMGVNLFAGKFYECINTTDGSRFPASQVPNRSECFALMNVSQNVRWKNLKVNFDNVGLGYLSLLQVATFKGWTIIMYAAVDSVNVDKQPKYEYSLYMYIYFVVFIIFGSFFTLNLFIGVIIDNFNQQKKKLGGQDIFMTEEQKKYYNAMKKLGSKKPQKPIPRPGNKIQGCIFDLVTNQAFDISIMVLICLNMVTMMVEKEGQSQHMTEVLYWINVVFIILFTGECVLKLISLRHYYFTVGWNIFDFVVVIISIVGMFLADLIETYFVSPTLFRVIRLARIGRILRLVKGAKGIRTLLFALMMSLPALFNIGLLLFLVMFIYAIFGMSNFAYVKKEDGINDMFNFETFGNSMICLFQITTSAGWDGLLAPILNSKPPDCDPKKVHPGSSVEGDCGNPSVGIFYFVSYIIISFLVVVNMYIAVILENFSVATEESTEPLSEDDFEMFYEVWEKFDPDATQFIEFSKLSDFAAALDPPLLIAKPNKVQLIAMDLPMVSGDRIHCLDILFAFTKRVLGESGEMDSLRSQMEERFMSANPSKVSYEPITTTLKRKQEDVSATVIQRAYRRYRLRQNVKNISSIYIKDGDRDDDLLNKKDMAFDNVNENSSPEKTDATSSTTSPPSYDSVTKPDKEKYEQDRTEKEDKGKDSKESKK
Assay [5] addresses T2, Nav1.2. The following applies: cited from earlier work.
[6] abbreviates: FLIPR, read-out: Nav1.7 IC50 FLIPR.
Setting [7] is: Table 2, natural toxins, from WO 2012/004664 A2.

On to `CSCC[C@@H]1NC(=O)CNC(=O)[C@H](CCC(=O)O)NC(=O)[C@@H]2CSSC[C@H](NC(=O)[C@@H](N)Cc3ccc(O)cc3)C(=O)N[C@@H](CCC(N)=O)C(=O)N[C@@H](CCCCN)C(=O)N[C@@H](Cc3c[nH]c4ccccc34)C(=O)N[C@@H](CCSC)C(=O)N[C@@H](Cc3c[nH]c4ccccc34)C(=O)N[C@@H]([C@@H](C)O)C(=O)N[C@H]3CSSC[C@H](NC(=O)[C@H](C(C)C)NC1=O)C(=O)N[C@@H](CCCNC(=N)N)C(=O)N[C@@H](CC(C)C)C(=O)N[C@@H](Cc1c[nH]c4ccccc14)C(=O)N[C@H](C(=O)N[C@@H](CCCCN)C(=O)N[C@@H](CCCCN)C(=O)N[C@@H](CCCCN)C(=O)N[C@@H](CC(C)C)C(=O)N[C@H](Cc1c[nH]c4ccccc14)C(=O)NC1CCCCC1)CSSC[C@H](NC(=O)[C@H](CCCCN)NC(=O)[C@H](CCCNC(=N)N)NC(=O)[C@H](CCC(=O)O)NC(=O)[C@H](CO)NC(=O)[C@H](CC(=O)O)NC3=O)C(=O)N2` [Protoxin II (D)-NHcyclohexyl], for which the IC50 on Nav1.7 [1] (setting [6]) came out at 0.031 µM.
Still for that read-out and setting: in the case of `CSCC[C@@H]1NC(=O)CNC(=O)[C@H](CCC(=O)O)NC(=O)[C@@H]2CSSC[C@H](NC(=O)[C@@H](N)Cc3ccc(O)cc3)C(=O)N[C@@H](CCC(N)=O)C(=O)N[C@@H](CCCCN)C(=O)N[C@@H](Cc3c[nH]c4ccccc34)C(=O)N[C@@H](CCSC)C(=O)N[C@@H](Cc3c[nH]c4ccccc34)C(=O)N[C@@H]([C@@H](C)O)C(=O)N[C@H]3CSSC[C@H](NC(=O)[C@H](C(C)C)NC1=O)C(=O)N[C@@H](CCCNC(=N)N)C(=O)N[C@@H](CC(C)C)C(=O)N[C@@H](Cc1c[nH]c4ccccc14)C(=O)N[C@H](C(=O)N[C@@H](CCCCN)C(=O)N[C@@H](CCCCN)C(=O)N[C@@H](CCCCN)C(=O)N[C@@H](CC(C)C)C(=O)N[C@@H](Cc1c[nH]c4ccccc14)C(=O)N[C@H](Cc1c[nH]c4ccccc14)C(=O)O)CSSC[C@H](NC(=O)[C@H](CCCCN)NC(=O)[C@H](CCCNC(=N)N)NC(=O)[C@H](CCC(=O)O)NC(=O)[C@H](CO)NC(=O)[C@H](CC(=O)O)NC3=O)C(=O)N2` [Protoxin II-D-Trp] it was 0.0165 µM.
Consider `CNC(=O)[C@H](Cc1c[nH]c2ccccc12)NC(=O)[C@H](CC(C)C)NC(=O)[C@H](CCCCN)NC(=O)[C@H](CCCCN)NC(=O)[C@H](CCCCN)NC(=O)[C@@H]1CSSC[C@@H]2NC(=O)[C@H](CCCCN)NC(=O)[C@H](CCCNC(=N)N)NC(=O)[C@H](CCC(=O)O)NC(=O)[C@H](CO)NC(=O)[C@H](CC(=O)O)NC(=O)[C@@H]3CSSC[C@H](NC(=O)[C@H](C(C)C)NC(=O)[C@H](CCSC)NC(=O)CNC(=O)[C@H](CCC(=O)O)NC(=O)[C@H](CSSC[C@H](NC(=O)[C@@H](N)Cc4ccc(O)cc4)C(=O)N[C@@H](CCC(N)=O)C(=O)N[C@@H](CCCCN)C(=O)N[C@@H](Cc4c[nH]c5ccccc45)C(=O)N[C@@H](CCSC)C(=O)N[C@@H](Cc4c[nH]c5ccccc45)C(=O)N[C@@H]([C@@H](C)O)C(=O)N3)NC2=O)C(=O)N[C@@H](CCCNC(=N)N)C(=O)N[C@@H](CC(C)C)C(=O)N[C@@H](Cc2c[nH]c3ccccc23)C(=O)N1` [Protoxin II-NHMe], for which the IC50 on Nav1.7 [1] (setting [6]) turned out to be 0.0643 µM.
The molecule `CSCC[C@@H]1NC(=O)CNC(=O)[C@H](CCC(=O)O)NC(=O)[C@@H]2CSSC[C@H](NC(=O)[C@@H](N)Cc3ccc(O)cc3)C(=O)N[C@@H](CCC(N)=O)C(=O)N[C@@H](CCCCN)C(=O)N[C@@H](Cc3c[nH]c4ccccc34)C(=O)N[C@@H](CCSC)C(=O)N[C@@H](Cc3c[nH]c4ccccc34)C(=O)N[C@@H]([C@@H](C)O)C(=O)N[C@H]3CSSC[C@H](NC(=O)[C@H](C(C)C)NC1=O)C(=O)N[C@@H](CCCNC(=N)N)C(=O)N[C@@H](CC(C)C)C(=O)N[C@@H](Cc1c[nH]c4ccccc14)C(=O)N[C@H](C(=O)N[C@@H](CCCCN)C(=O)N[C@@H](CCCCN)C(=O)N[C@@H](CCCCN)C(=O)N[C@@H](CC(C)C)C(=O)N[C@@H](Cc1c[nH]c4ccccc14)C(=O)Nc1ccccc1)CSSC[C@H](NC(=O)[C@H](CCCCN)NC(=O)[C@H](CCCNC(=N)N)NC(=O)[C@H](CCC(=O)O)NC(=O)[C@H](CO)NC(=O)[C@H](CC(=O)O)NC3=O)C(=O)N2` [Protoxin II-NHanaline] displayed an IC50 against Nav1.7 [1] of 0.0051 µM.
With `CSCC[C@@H]1NC(=O)CNC(=O)[C@H](CCC(=O)O)NC(=O)[C@@H]2CSSC[C@H](NC(=O)[C@@H](N)Cc3ccc(O)cc3)C(=O)N[C@@H](CCC(N)=O)C(=O)N[C@@H](CCCCN)C(=O)N[C@@H](Cc3c[nH]c4ccccc34)C(=O)N[C@@H](CCSC)C(=O)N[C@@H](Cc3c[nH]c4ccccc34)C(=O)N[C@@H]([C@@H](C)O)C(=O)N[C@H]3CSSC[C@H](NC(=O)[C@H](C(C)C)NC1=O)C(=O)N[C@@H](CCCNC(=N)N)C(=O)N[C@@H](CC(C)C)C(=O)N[C@@H](Cc1c[nH]c4ccccc14)C(=O)N[C@H](C(=O)N[C@@H](CCCCN)C(=O)N[C@@H](CCCCN)C(=O)N[C@@H](CCCCN)C(=O)N[C@@H](CC(C)C)C(=O)N[C@@H](Cc1c[nH]c4ccccc14)C(=O)NC1CCCCC1)CSSC[C@H](NC(=O)[C@H](CCCCN)NC(=O)[C@H](CCCNC(=N)N)NC(=O)[C@H](CCC(=O)O)NC(=O)[C@H](CO)NC(=O)[C@H](CC(=O)O)NC3=O)C(=O)N2` [Protoxin II-NHcyclohexyl], the IC50 at Nav1.7 [1] (setting [6]) stood at 0.022 µM.
Still for that read-out and setting: under `COC(=O)[C@H](Cc1c[nH]c2ccccc12)NC(=O)[C@H](CC(C)C)NC(=O)[C@H](CCCCN)NC(=O)[C@H](CCCCN)NC(=O)[C@H](CCCCN)NC(=O)[C@@H]1CSSC[C@@H]2NC(=O)[C@H](CCCCN)NC(=O)[C@H](CCCNC(=N)N)NC(=O)[C@H](CCC(=O)O)NC(=O)[C@H](CO)NC(=O)[C@H](CC(=O)O)NC(=O)[C@@H]3CSSC[C@H](NC(=O)[C@H](C(C)C)NC(=O)[C@H](CCSC)NC(=O)CNC(=O)[C@H](CCC(=O)O)NC(=O)[C@H](CSSC[C@H](NC(=O)[C@@H](N)Cc4ccc(O)cc4)C(=O)N[C@@H](CCC(N)=O)C(=O)N[C@@H](CCCCN)C(=O)N[C@@H](Cc4c[nH]c5ccccc45)C(=O)N[C@@H](CCSC)C(=O)N[C@@H](Cc4c[nH]c5ccccc45)C(=O)N[C@@H]([C@@H](C)O)C(=O)N3)NC2=O)C(=O)N[C@@H](CCCNC(=N)N)C(=O)N[C@@H](CC(C)C)C(=O)N[C@@H](Cc2c[nH]c3ccccc23)C(=O)N1` [Protoxin II-OMe] stands 0.0084 µM.
For the molecule `CSCC[C@@H]1NC(=O)CNC(=O)[C@H](CCC(=O)O)NC(=O)[C@@H]2CSSC[C@H](NC(=O)[C@@H](N)Cc3ccc(O)cc3)C(=O)N[C@@H](CCC(N)=O)C(=O)N[C@@H](CCCCN)C(=O)N[C@@H](Cc3c[nH]c4ccccc34)C(=O)N[C@@H](CCSC)C(=O)N[C@@H](Cc3c[nH]c4ccccc34)C(=O)N[C@@H]([C@@H](C)O)C(=O)N[C@H]3CSSC[C@H](NC(=O)[C@H](C(C)C)NC1=O)C(=O)N[C@@H](CCCNC(=N)N)C(=O)N[C@@H](CC(C)C)C(=O)N[C@@H](Cc1c[nH]c4ccccc14)C(=O)N[C@H](C(=O)N[C@@H](CCCCN)C(=O)N[C@@H](CCCCN)C(=O)N[C@@H](CCCCN)C(=O)N[C@@H](CC(C)C)C(=O)N[C@@H](Cc1c[nH]c4ccccc14)C(=O)O)CSSC[C@H](NC(=O)[C@H](CCCCN)NC(=O)[C@H](CCCNC(=N)N)NC(=O)[C@H](CCC(=O)O)NC(=O)[C@H](CO)NC(=O)[C@H](CC(=O)O)NC3=O)C(=O)N2` [Protoxin II], on Nav1.2 [2], half-maximal inhibition (IC50) was put at 0.1 µM.
With `NC1=N[C@H](O)[C@H]2[C@H]3O[C@]4(O)O[C@@H]([C@@H](O)[C@@]2(N1)[C@@H]4O)[C@]3(O)CO` [TTX, tetrodotoxin], the concentration for half-maximal inhibition (IC50) at Nav1.1 was 0.01 µM; on Nav1.6 it was 0.006 µM; at Nav1.9, 1 µM; at Nav1.3 it was 0.015 µM; at Nav1.2 [3] it was 0.01 µM; on Nav1.8 it was 50 µM.
On to YCQKWLWTCDSERKCCEDMVCRLWCKKRL [GsAF I], for which the concentration for half-maximal inhibition (IC50) on Nav1.7 [4] was 0.249 µM; on Nav1.2 [5] (setting [7]) it was 0.255 ± 0.043 µM.
Turning to “YCQKWMWTCDEERKCCEGLVCRLWCKKKIEEG [VsTx II]”, the IC50 at Nav1.7 [4] was 9.26 µM; on Nav1.2 [5] (setting [7]), 42.4 µM.
With “YCQKWMWTCDEERKCCEGLVCRLWCKKKIEW [GsAF II]”, the figures for the IC50 at Nav1.7 [4] and at Nav1.2 [5] (setting [7]) were 0.07 µM and 0.41 ± 0.02 µM, respectively.
With “YCQKWMWTCDEERKCCEGLVCRLWCKRIINM [GsMTx II/PaTX II]”, the 50% inhibitory concentration (IC50) on Nav1.7 [4] was 0.26 µM; on Nav1.2 [5] (setting [7]), 2.7 µM.
Take YCQKWMWTCDSARKCCEGLVCRLWCKKII [PaTx I]: the IC50 on Nav1.2 [5] was 5 µM.
On to “YCQKWMWTCDSERKCCEGYVCELWCKYNL [JxTx XII]”, for which, at Nav1.2 [5], the IC50 is 73.9 µM.
As to YCQKWMWTCDSKRACCEGLRCKLWCRKII [JzTx V], the IC50 at Nav1.2 [5] (setting [7]) is 0.157 ± 0.02 µM.
As for YCQKWMWTCDSKRKCCEDMVCQLWCKKRL [GrTx I], the figures for the 50% inhibitory concentration (IC50) on Nav1.7 [4] and on Nav1.2 [5] (setting [7]) were 1.01 µM and 2.69 µM, respectively.
